Results taken from ChEMBL document CHEMBL6103537 (J Med Chem, 2025).

The compounds below were run against T1, Signal transducer and activator of transcription 6 (Homo sapiens, UniProt P42226) (assay: Binding affinity to N-terminal his6-tgged STAT6 (unknown origin) (113 to 658 residues) assessed as inhibition constant incubated for 1 hr by fluorescence polarization assay).
T1 sequence (P42226 whole entry): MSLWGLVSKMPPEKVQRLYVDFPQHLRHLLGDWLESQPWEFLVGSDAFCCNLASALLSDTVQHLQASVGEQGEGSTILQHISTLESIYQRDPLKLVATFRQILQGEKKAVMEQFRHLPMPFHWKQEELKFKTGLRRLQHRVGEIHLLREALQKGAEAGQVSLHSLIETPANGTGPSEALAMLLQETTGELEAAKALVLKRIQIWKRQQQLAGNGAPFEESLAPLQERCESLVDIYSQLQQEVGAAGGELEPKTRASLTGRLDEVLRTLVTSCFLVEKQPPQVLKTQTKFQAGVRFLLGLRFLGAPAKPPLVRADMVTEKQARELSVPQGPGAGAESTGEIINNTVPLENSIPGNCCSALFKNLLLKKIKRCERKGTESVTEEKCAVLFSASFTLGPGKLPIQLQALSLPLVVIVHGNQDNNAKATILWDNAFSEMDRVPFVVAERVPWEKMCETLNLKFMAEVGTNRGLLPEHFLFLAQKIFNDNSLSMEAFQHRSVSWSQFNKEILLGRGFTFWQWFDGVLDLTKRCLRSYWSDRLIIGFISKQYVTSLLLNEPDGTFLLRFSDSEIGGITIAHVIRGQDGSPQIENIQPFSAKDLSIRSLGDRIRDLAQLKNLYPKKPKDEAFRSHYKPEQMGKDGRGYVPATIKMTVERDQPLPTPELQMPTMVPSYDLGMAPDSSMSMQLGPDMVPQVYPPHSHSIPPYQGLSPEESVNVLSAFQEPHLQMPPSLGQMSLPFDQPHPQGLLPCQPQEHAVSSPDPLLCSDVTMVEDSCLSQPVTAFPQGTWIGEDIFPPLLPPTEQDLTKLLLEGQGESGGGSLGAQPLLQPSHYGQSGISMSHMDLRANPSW

In order of falling Ki:
1. C/C(=C\C(=O)N[C@H](C(=O)N1CCC[C@H]1C(=O)N1CCc2ccccc2C1)C(C)(C)C)c1ccc(C(F)(F)P(=O)(O)O)cc1  3500 nM
2. O=C(N[C@@H](Cc1ccncc1)C(=O)N1CCC[C@H]1C(=O)N1CCO[C@H](c2ccccc2)C1)c1cc2cc(C(F)(F)P(=O)(O)O)ccc2s1  450 nM
3. O=C(N[C@@H](Cc1ccccc1)C(=O)N1CCC[C@H]1C(=O)N1CCO[C@H](c2ccccc2)C1)c1cc2cc(C(F)(F)P(=O)(O)O)ccc2s1  340 nM
4. O=C(N[C@H](C(=O)N1CCC[C@H]1C(=O)N1CCO[C@H](c2ccccc2)C1)C1CCNCC1)c1cc2cc(C(F)(F)P(=O)(O)O)ccc2s1  260 nM
5. CN1CCC(C[C@H](NC(=O)c2cc3cc(C(F)(F)P(=O)(O)O)ccc3s2)C(=O)N2CCC[C@H]2C(=O)N2CCO[C@H](c3ccccc3)C2)CC1  250 nM
6. O=C(N[C@@H](Cc1ccc2ccccc2c1)C(=O)N1CCC[C@H]1C(=O)N1CCO[C@H](c2ccccc2)C1)c1cc2cc(C(F)(F)P(=O)(O)O)ccc2s1  250 nM
7. COc1ccc(C[C@H](NC(=O)c2cc3cc(C(F)(F)P(=O)(O)O)ccc3s2)C(=O)N2CCC[C@H]2C(=O)N2CCO[C@H](c3ccccc3)C2)cc1  210 nM
8. CC(C)(C)[C@H](NC(=O)c1cc2cc(C(F)(F)P(=O)(O)O)ccc2s1)C(=O)N1CCCCC[C@H]1C(=O)N1CCC[C@H](c2ccccc2)C1  200 nM
9. CC(C)(C)[C@H](NC(=O)c1cc2cc(C(F)(F)P(=O)(O)O)ccc2s1)C(=O)N1Cc2ccccc2C[C@H]1C(=O)N1CCC[C@H](c2ccccc2)C1  190 nM
10. O=C(N[C@@H](CC1CCNCC1)C(=O)N1CCC[C@H]1C(=O)N1CCO[C@H](c2ccccc2)C1)c1cc2cc(C(F)(F)P(=O)(O)O)ccc2s1  180 nM
11. O=C(N[C@@H](Cc1ccc(Br)cc1)C(=O)N1CCC[C@H]1C(=O)N1CCO[C@H](c2ccccc2)C1)c1cc2cc(C(F)(F)P(=O)(O)O)ccc2s1  170 nM
12. CC(C)(C)[C@H](NC(=O)c1cc2cc(C(F)(F)P(=O)(O)O)ccc2s1)C(=O)N1CCCC[C@H]1C(=O)N1CCC[C@H](c2ccccc2)C1  160 nM
13. CC(C)(C)c1ccc(C[C@H](NC(=O)c2cc3cc(C(F)(F)P(=O)(O)O)ccc3s2)C(=O)N2CCC[C@H]2C(=O)N2CCO[C@H](c3ccccc3)C2)cc1  160 nM
14. CC[C@H](NC(=O)c1cc2cc(C(F)(F)P(=O)(O)O)ccc2s1)C(=O)N1CCC[C@H]1C(=O)N1CCO[C@H](c2ccccc2)C1  160 nM
15. O=C(N[C@H](C(=O)N1CCC[C@H]1C(=O)N1CCO[C@H](c2ccccc2)C1)C1CC1)c1cc2cc(C(F)(F)P(=O)(O)O)ccc2s1  120 nM
16. CC(C)(C)[C@H](NC(=O)c1cc2cc(C(F)(F)P(=O)(O)O)ccc2s1)C(=O)N1CCCCC[C@H]1C(=O)N1CCO[C@H](c2ccccc2)C1  120 nM
17. CC(C)(O)[C@H](NC(=O)c1cc2cc(C(F)(F)P(=O)(O)O)ccc2s1)C(=O)N1CCC[C@H]1C(=O)N1CCO[C@H](c2ccccc2)C1  120 nM
18. CC(C)(C)[C@H](NC(=O)c1cc2cc(C(F)(F)P(=O)(O)O)ccc2s1)C(=O)N1CCCC[C@H]1C(=O)N1CCO[C@H](c2ccccc2)C1  110 nM
19. O=C(N[C@H](C(=O)N1CCC[C@H]1C(=O)N1CCO[C@H](c2ccccc2)C1)C1CCCCC1)c1cc2cc(C(F)(F)P(=O)(O)O)ccc2s1  90 nM
20. CC(C)(C)[C@H](NC(=O)c1cc2cc(C(F)(F)P(=O)(O)O)ccc2s1)C(=O)N1Cc2ccccc2C[C@H]1C(=O)N1CCO[C@H](c2ccccc2)C1  83 nM
21. CC(C)(C)[C@H](NC(=O)c1cc2cc(C(F)(F)P(=O)(O)O)ccc2s1)C(=O)N1Cc2ccccc2[C@H]1C(=O)N1CCC[C@H](c2ccccc2)C1  42 nM
22. CC(C)(C)[C@H](NC(=O)c1cc2cc(C(F)(F)P(=O)(O)O)ccc2s1)C(=O)N1Cc2ccccc2[C@H]1C(=O)N1CCO[C@H](c2ccccc2)C1  33 nM
23. CO[C@H]1C[C@@H](C(=O)N2CCO[C@H](c3ccccc3)C2)N(C(=O)[C@@H](NC(=O)c2cc3cc(C(F)(F)P(=O)(O)O)ccc3s2)C(C)(C)C)C1  6 nM
